SMILES	logP
O=C1CC(=O)N(c2ccccc2)O1	0.54
O=C1CN(c2ccccc2)C(=O)N1	0.83
O=c1[nH]c(=O)n(-c2ccccc2)o1	1.74
O=C1CNC(=O)N1c1ccccc1	0.04
O=C1CC(=O)N(Cc2ccccc2)C1	0.76
O=C1CN(Cc2ccccc2)C(=O)N1	0.76
NC(=O)NS(=O)(=O)Cc1ccccc1	0.24
NS(=O)(=O)NC(=O)Cc1ccccc1	0.31

Continued, values first:

logP	SMILES
1.47	O=C1CC(=O)C(c2ccccc2)O1 (configuration not stated)
1.09	O=C1NC(=O)C(c2ccccc2)O1 (configuration not stated)
0.6	O=C1NC(=O)N(c2ccccc2)C1=O
0.6	O=C1NC(=O)C(Cc2ccccc2)N1 (configuration not stated)
2.26	O=C1NC(=O)C(c2ccccc2)C1=O (configuration not stated)
1.98	O=C1NC(=O)C(Cc2ccccc2)S1 (configuration not stated)
0.48	O=C1CC(=O)C(c2ccccc2)N1 (configuration not stated)
1.2	O=C1NC(=O)C(Cc2ccccc2)O1 (configuration not stated)
1.19	O=C1NC(=O)N(Cc2ccccc2)C1=O

Source: the OPERA property sets (Mansouri et al. 2018)
